Test results from US12486276B2, “5-(2,5-difluorophenyl)pyrrolidin-1-yl)-3-(1H-pyrazol-1-yl)pyrazolo[1,5-a]pyrimidine derivatives and related compounds as Trk kinase inhibitors for treating cancer” (Pyramid Biosciences, Inc., priority 2017, dated 2025).

Molecular target: T1, TrkA kinase domain (Homo sapiens, UniProt P04629)
T1 construct: TrkA kinase domain was supplied by SignalChem; purchased SignalChem
Assay: TrkA Kinase Assay (Trk kinase biochemical assay)
Conditions: 33 pM TrkA, 100 nM peptide substrate, 10 µM ATP; 15 minute preincubation; read-out: TrkA WT IC50
Method: Example 33: TrkA Kinase Assay Protocol
TrkA kinase domain was supplied by SignalChem. Ulight PolyGT peptide substrate and Europium labeled W1024 antiphosphotyrosine antibody were supplied by Perkin Elmer. Assay buffer contained 50 mM HEPES, 10 mM MgCb, 1 mM EGTA, 2 mM DTT, 0.1 mg/mL BSA, and 0.005% w/v tween 20, pH 7.5. Enzyme dilution buffer was made by supplementing assay buffer with 25% w/v glycerol. Antibody dilution buffer contained 20 mM Tris, 137 mM NaCl, and 0.05% w/v tween 20, pH 8.0. Buffers were prepared at room temperature. Enzyme solutions were made on ice, while other solutions were made at room temperature and all subsequent assay steps were performed at room temperature. The TrkA stock solution (0.1 mg/mL) was diluted 156× in enzyme dilution buffer and then 100× in assay buffer. Five pL/well of enzyme solution was added to the assay plate (Greiner black 384-well nonbinding plate), with buffer containing no enzyme added to negative control wells. Test compounds were serially diluted in DMSO at 300× final assay concentration. One μL of each test compound dilution was mixed with 99 pL assay buffer plus ATP (30 μM) and five pL of each test compound-ATP solution was added to w¾13s containing enzyme. Positive control wells contained enzyme and substrates but no test compounds. After a 15 minute enzyme-test compound preincubation, five pL of substrate diluted in assay buffer was added to all wells. Final assay concentrations were 33 pM TrkA, 100 nM peptide substrate, and […]. After a five minute reaction, five pL of 80 mM EDTA was added, followed five minutes later by five pL two nM antibody solution. The ratio of fluorescence at 665 nm vs. 615 nM in each well was determined using a Tecan Infinite Pro F200 plate reader. For each test compound well, percent inhibition w % s calculated (% inliib. =100-100*(test value-neg. control)/(pos. control-neg. control)). Percent inhibition values were fit to a four parameter logistic to determine ICso values for each test compound.

T1 sequence (P04629 510-781 limits assumed): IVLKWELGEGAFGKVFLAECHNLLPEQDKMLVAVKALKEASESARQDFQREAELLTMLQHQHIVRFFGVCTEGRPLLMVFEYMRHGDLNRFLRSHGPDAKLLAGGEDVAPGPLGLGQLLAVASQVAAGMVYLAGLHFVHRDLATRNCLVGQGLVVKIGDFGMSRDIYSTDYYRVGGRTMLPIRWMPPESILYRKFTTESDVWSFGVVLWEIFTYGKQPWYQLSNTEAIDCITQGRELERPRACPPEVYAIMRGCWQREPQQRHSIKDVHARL

| Compound | IC50 |
| --- | --- |
| Cc1cnn(-c2cnn3ccc(N4CCC[C@@H]4c4nc(F)ccc4F)nc23)c1 [I-154, (R)-5-(2-(3,6-difluoropyridin-2-yl)pyrrolidin-1-yl)-3-(4-methyl-1H-pyrazol-1-yl)pyrazolo[1,5-a]pyrimidine] | < 10 nM |
| NC(=O)c1cnccc1-c1cnn(-c2cnn3ccc(N4CCC[C@@H]4c4cc(F)ccc4F)nc23)c1 [I-203] | < 10 nM |
| Fc1ccc(F)c([C@H]2CCCN2c2ccn3ncc(-n4ncc5c4CCOC5)c3n2)c1 [I-184, (R)-1-(5-(2-(2,5-difluorophenyl)pyrrolidin-1-yl)pyrazolo[1,5-a]pyrimidin-3-yl)-1,4,6,7-tetrahydropyrano[4,3-c]pyrazole] | < 10 nM |
| Fc1ccc(F)c([C@H]2CCCN2c2ccn3ncc(-n4cc(OC5COC5)cn4)c3n2)c1 [I-179] | < 10 nM |
| Fc1ccc(F)c([C@H]2CCCN2c2ccn3ncc(-n4cc(-c5cn[nH]c5)cn4)c3n2)c1 [I-171] | < 10 nM |
| Fc1cccnc1[C@H]1CCCN1c1ccn2ncc(-n3cc(C(F)(F)F)cn3)c2n1 [I-215] | < 10 nM |
| CS(=O)(=O)c1cnn(-c2cnn3ccc(N4CCC[C@@H]4c4cc(F)ccc4F)nc23)c1 [I-181, (R)-5-(2-(2,5-difluorophenyl)pyrrolidin-1-yl)-3-(4-(methylsulfonyl)-1H-pyrazoI-1-yl)pyrazolo[1,5-a]pyrimidine] | < 10 nM |
| Cc1cn(-c2cnn3ccc(N4CCC[C@@H]4c4cc(F)ccc4F)nc23)nc1C [I-150] | < 10 nM |
| CC(=O)c1cnn(-c2cnn3ccc(N4CCC[C@@H]4c4cc(F)ccc4F)nc23)c1 [I-225, (R)-1-(1-(5-(2-(2,5-difluorophenyl)pyrrolidin-1-yl)pyrazolo[1,5-a]pyrimidin-3-yl)-1H-pyrazol-4-yl)ethanone] | < 10 nM |
| CC(C)(O)c1cnn(-c2cnn3ccc(N4CCC[C@@H]4c4cc(F)ccc4F)nc23)c1 [I-169] | < 10 nM |
| Fc1ccc(F)c([C@H]2CCCN2c2ccn3ncc(-n4cc(C5=COCC5)cn4)c3n2)c1 [I-212] | < 10 nM |
| Fc1ccc(F)c([C@H]2CCCN2c2ccn3ncc(-n4cc(-c5ccncc5F)cn4)c3n2)c1 [I-205] | < 10 nM |
| COc1cc(C)n(-c2cnn3ccc(N4CCC[C@@H]4c4cc(F)ccc4F)nc23)n1 [I-167] | > 500 nM |
| Cc1nn(-c2cnn3ccc(N4CCC[C@@H]4c4cc(F)ccc4F)nc23)cc1-c1ccccc1 [I-151] | < 10 nM |
| Cc1ncc(-c2cnn(-c3cnn4ccc(N5CCC[C@@H]5c5cc(F)ccc5F)nc34)c2)s1 [I-164] | < 10 nM |
| Fc1ccc(F)c([C@H]2CCCN2c2ccn3ncc(-n4cncn4)c3n2)c1 [I-168] | < 10 nM |
| CCP(=O)(CC)c1cnn(-c2cnn3ccc(N4CCC[C@@H]4c4cc(F)ccc4F)nc23)c1 [I-177] | < 10 nM |
| Cn1cc(-c2cnn(-c3cnn4ccc(N5CCC[C@@H]5c5cc(F)ccc5F)nc34)c2)cn1 [I-158] | < 10 nM |
| OCc1cnn(-c2cnn3ccc(N4CCC[C@@H]4c4cc(F)ccc4F)nc23)c1 [I-155] | < 10 nM |
| Fc1ccc(F)c([C@H]2CCCN2c2ccn3ncc(-n4cc(C(F)(F)F)cn4)c3n2)c1 [I-147] | < 10 nM |
| COc1cncc(-c2cnn(-c3cnn4ccc(N5CCC[C@@H]5c5ncccc5F)nc34)c2)c1 [I-211] | < 10 nM |
| Cn1ccc(-c2cnn(-c3cnn4ccc(N5CCC[C@@H]5c5cc(F)ccc5F)nc34)c2)cc1=O [I-165] | < 10 nM |
| NC(=O)c1cnn(-c2cnn3ccc(N4CCC[C@@H]4c4cc(F)ccc4F)nc23)c1 [I-173, (R)-1-(5-(2-(2,5-difluorophenyl)pyrrolidin-1-yl)pyrazolo[1,5-a]pyrimidin-3-yl)-1H-pyrazole-4-carboxamide] | < 10 nM |
| N#Cc1cnn(-c2cnn3ccc(N4CCC[C@@H]4c4cc(F)ccc4F)nc23)c1 [I-170, (R)-1-(5-(2-(2,5-difluorophenyl)pyrrolidin-1-yl)pyrazolo[J5-a]pyrimidin-3-yl)-1H-pyrazole-4-carbonitrile] | < 10 nM |
| COc1ccc(-c2cnn(-c3cnn4ccc(N5CCC[C@@H]5c5cc(F)ccc5F)nc34)c2)cn1 [I-200] | < 10 nM |

| Compound | IC50 |
| --- | --- |
| Fc1ccc(F)c([C@H]2CCCN2c2ccn3ncc(-n4cc(-c5ccc(OC6COC6)nc5)cn4)c3n2)c1 [I-223, (R)-5-(2-(2,5-difluorophenyl)pyrrolidn-1-yl)-3-(4-(6-(oxetan-3-yloxy)pyridin-3-yl)-H-pyrazol-1-yl)pyrazolo[1,5-a]pyrimidine] | < 10 nM |
| COc1cc(C)nn1-c1cnn2ccc(N3CCC[C@@H]3c3cc(F)ccc3F)nc12 [I-166] | > 500 nM |
| Fc1cccnc1[C@H]1CCCN1c1ccn2ncc(-n3cc(-c4ccncc4)cn3)c2n1 [I-213] | < 10 nM |
| CNc1ccc(F)c([C@H]2CCCN2c2ccn3ncc(-n4cc(C)cn4)c3n2)n1 [I-218] | < 10 nM |
| Fc1ccc(F)c([C@H]2CCCN2c2ccn3ncc(-n4cc(C5=CCOCC5)cn4)c3n2)c1 [I-175, (R)-5-(2-(2,5-difluorophenyl)pyrrolidin-1-yl)-3-(4-(3,6-dihydro-2H-pyran-4-yl)-1H-pyrazol-1-yl)pyrazolo[1,5-a]pyrimidine] | < 10 nM |
| Cc1cnn(-c2cnn3ccc(N4CCC[C@@H]4c4nc(N(C)C)ccc4F)nc23)c1 [I-217, (R)-5-fluoro-N,N-dimethyl-6-(1-(3-(4-methyl-1H-pyrazol-1-yl)pyrazolo[1,5-a]pyrimidin-5-yl)pyrrolidin-2-yl)pyridin-2-amine] | < 10 nM |
| COc1cncc(-c2cnn(-c3cnn4ccc(N5CCC[C@@H]5c5nc(F)ccc5F)nc34)c2)c1 [I-206, (R)-5-(2-(3,6-difluoropyridin-2-yl)pyrrolidin-t-yl)-3-(4-(5-methoxypyridin-3-yi)-1H-pyrazol-1-yl)pyrazolo[1,5-a]pyrimidine] | < 10 nM |
| Fc1ccc(F)c([C@H]2CCCN2c2ccn3ncc(-n4cc(C5=CCOC5)cn4)c3n2)c1 [I-188] | < 10 nM |
| COc1ccc(-c2cnn(-c3cnn4ccc(N5CCC[C@@H]5c5ncccc5F)nc34)c2)cn1 [I-222] | < 10 nM |
| Fc1cncc(-c2cnn(-c3cnn4ccc(N5CCC[C@@H]5c5cc(F)ccc5F)nc34)c2)c1 [I-190] | < 10 nM |
| Fc1ccc(F)c([C@H]2CCCN2c2ccn3ncc(-n4cc(-c5ccnnc5)cn4)c3n2)c1 [I-199] | < 10 nM |
| O=C(c1cnn(-c2cnn3ccc(N4CCC[C@@H]4c4cc(F)ccc4F)nc23)c1)N1CCOCC1 [I-185, (R)-(1-(5-(2-(2,5-difluoropheiiyl)pyrrolidin-1-yl)pyrazolo[la]pyrimidin-3-yl)-1H-pyrazol-4-yl)(morpholino)methanone] | < 10 nM |
| CN(C)S(=O)(=O)Nc1cnn(-c2cnn3ccc(N4CCC[C@@H]4c4cc(F)ccc4F)nc23)c1 [I-198, (R)—N-(1-(5-(2-(2,5-difluorophenyl)pyrrolidin-1-yl)pyrazolo[1,5-a]pyrimidin-3-yl)-1H-pyrazol-4-yl)-1,1-dimethylsulfonylurea] | < 10 nM |
| COc1ccc(-c2cnn(-c3cnn4ccc(N5CCC[C@@H]5c5nc(F)ccc5F)nc34)c2)cn1 [I-221, (R)-5-(2-(3,6-difluoropyridin-2-yl)pyrrolidin-1-yl)-3-(4-(6-methoxypyridin-3-yl)-1H-pyrazol-1-yl)pyrazolo[1,5-a]pyrimidine] | < 10 nM |
| CN(C)Cc1cnn(-c2cnn3ccc(N4CCC[C@@H]4c4cc(F)ccc4F)nc23)c1 [I-186, (R)-1-(1-(5-(2-(2,5-difluor®phenyl)pyrrolidin-1-yl)pyrazolo[1,5-a]pyrimidin-3-yl)-1H-pyrazol-4-yl)-N,N-dimethylmethanamine] | < 10 nM |
| Fc1ccc(F)c([C@H]2CCCN2c2ccn3ncc(-n4cc(-c5cnccn5)cn4)c3n2)c1 [I-153] | < 10 nM |
| Cc1cnn(-c2cnn3ccc(N4CCC[C@@H]4c4ncccc4F)nc23)c1 [I-182, (R)-5-(2-(3-fluoropyridin-2-yl)pyrrolidin-1-yl)-3-(4-methyl-1H-pyrazol-1-yl)pyrazolo[1,5-a] pyrimidine] | < 10 nM |
| Fc1ccc(F)c([C@H]2CCCN2c2ccn3ncc(-n4cc(-c5ccsc5)cn4)c3n2)c1 [I-162] | < 10 nM |
| Cc1noc(C)c1-c1cnn(-c2cnn3ccc(N4CCC[C@@H]4c4cc(F)ccc4F)nc23)c1 [I-157, (R)-4-(1-(5-(2-(2,5-difluorophenyl)pyrrolidin˜yl)pyrazolo[,5-a]pyrimidin-3-yl)-1H-pyrazol-4-yl)-3,5-dimethylisoxazole] | < 10 nM |
| Fc1ccc(F)c([C@H]2CCCN2c2ccn3ncc(-n4cc(-c5cncnc5)cn4)c3n2)c1 [I-163] | < 10 nM |
| Fc1cccnc1[C@H]1CCCN1c1ccn2ncc(-n3cc(-c4ccccc4)cn3)c2n1 [I-192] | < 10 nM |
| Fc1ccc(F)c([C@H]2CCCN2c2ccn3ncc(-n4cc(-c5cccnc5F)cn4)c3n2)c1 [I-194] | < 10 nM |
| OC1CCN(c2cnn(-c3cnn4ccc(N5CCC[C@@H]5c5cc(F)ccc5F)nc34)c2)C1 (stereo partly shown) [I-208] | < 10 nM |
| Fc1ccc(F)c([C@H]2CCCN2c2ccn3ncc(-n4cc(C5CCOC5)cn4)c3n2)c1 (stereo partly shown) [I-210] | < 10 nM |
